Measured values taken from patent US8343983B2, “Substituted pyrazolo-pyrimidine compounds” (ArQule, Inc., priority 2009, dated 2013).
Where two headings read alike, the source gives them in different places.

Test system: cancer cells
Experiment: MTS assay: inhibition of cell growth (formazan absorbance at 492 nm after 72 hours with test compound)
Type: cell-based
Conditions: inhibition class
Method in brief: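 DMEM with 1% FBS; cells seeded at 3000/well and grown 18 h at 37 °C, then exposed to compound for 72 h and to MTS/PMS for 4 h. IC50 is the concentration giving a 50% absorbance drop; grades are % inhibition bands.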

[1] = Homo sapiens, DLD-1 cells, read-out: DLD-1, MTS 72 hours at 10 uM
[2] = Homo sapiens, KATO III cells, read-out: KATO III, MTS 72 hours at 10 uM
[3] = Homo sapiens, MDA-MB-231 cells, read-out: MDA-MB-231, MTS 72 hours at 10 uM
[4] = Homo sapiens, NCI-H1299 cells, read-out: NCI-H1299, MTS 72 hours at 10 uM
[5] = Homo sapiens, PC-3 cells, read-out: PC-3, MTS 72 hours at 10 uM
[6] = PACA-2 cells, read-out: PACA-2, MTS 72 hours at 10 uM

Compound	inhibition at 10 µM [1] [%]	inhibition at 10 µM [2] [%]	inhibition at 10 µM [3] [%]	inhibition at 10 µM [4] [%]	inhibition at 10 µM [5] [%]	inhibition at 10 µM [6] [%]
COc1ccc(CN2CCc3n[nH]c4nc(NCc5cccc(F)c5)nc2c34)cc1 [Compound 113, N-(3-fluorobenzyl)-6-(4-methoxybenzyl)-2,6,7,8-tetrahydro-1,2,3,5,6-pentaazaacenaphthylen-4-amine]	> 79	< 50	50 to 79	< 50	> 79	> 79
COc1ccc(CN2CCc3n[nH]c4nc(N5CCOCC5)nc2c34)cc1 [Compound 110, 6-(4-methoxybenzyl)-4-morpholin-4-yl-2,6,7,8-tetrahydro-1,2,3,5,6-pentaazaacenaphthylene]	< 50	< 50	< 50	< 50	< 50	< 50
COc1cc(OC)nc(CN2CCN(c3nc4c5c(n[nH]c5n3)CCN4Cc3ccccc3)CC2)n1 [Compound 20, 6-benzyl-4-{4-[(4,6-dimethoxypyrimidin-2-yl)methyl]piperazin-1-yl}-2,6,7,8-tetrahydro-1,2,3,5,6-pentaazaacenaphthylene]	< 50	< 50	< 50	< 50	< 50	< 50
Fc1ccccc1CCNc1nc2c3c(n[nH]c3n1)CCN2Cc1ccccc1 [Compound 22, 6-benzyl-N-[2-(2-fluorophenyl)ethyl]-2,6,7,8-tetrahydro-1,2,3,5,6-pentaazaacenaphthylen-4-amine]	< 50	< 50	< 50	< 50	< 50	< 50
c1cc(N2CCN(c3nc4c5c(n[nH]c5n3)CCN4)CC2)ccn1 [Compound 122, 4-(4-pyridin-4-ylpiperazin-1-yl)-2,6,7,8-tetrahydro-1,2,3,5,6-pentaazaacenaphthylene]	< 50	< 50	< 50	< 50	< 50	< 50
c1ccc(CNc2nc3c4c(n[nH]c4n2)CCN3Cc2ccccc2)cc1 [Compound 37, N,6-dibenzyl-2,6,7,8-tetrahydro-1,2,3,5,6-pentaazaacenaphthylen-4-amine]	< 50	< 50	< 50	< 50	< 50	< 50
COc1ccc(CN2CCc3n[nH]c4nc(SC)nc2c34)cc1 [Compound 99, 6-(4-methoxybenzyl)-4-(methylsulfanyl)-2,6,7,8-tetrahydro-1,2,3,5,6-pentaazaacenaphthylene]	< 50	< 50	< 50	< 50	< 50	< 50
C[C@@H]1CN(c2nc3c4c(n[nH]c4n2)CCN3Cc2ccccc2)C[C@H](C)O1 [Compound 96, 6-benzyl-4-[(2R,6S)-2,6-dimethylmorpholin-4-yl]-2,6,7,8-tetrahydro-1,2,3,5,6-pentaazaacenaphthylene]	< 50	> 79	> 79	< 50	> 79	< 50
COc1ccc(CN2CCCc3n[nH]c4nc(NC5CCN(C)CC5)nc2c34)cc1 [Compound 246, 6-(4-methoxybenzyl)-N-(1-methylpiperidin-4-yl)-6,7,8,9-tetrahydro-2H-1,2,3,5,6-pentaazabenzo[cd]azulen-4-amine]	< 50	< 50	< 50	< 50	< 50	< 50
c1ccc(CCNc2nc3c4c(n[nH]c4n2)CCN3c2ccccc2)cc1 [Compound 220, 6-phenyl-N-(2-phenylethyl)-2,6,7,8-tetrahydro-1,2,3,5,6-pentaazaacenaphthylen-4-amine]	> 79	> 79	50 to 79	50 to 79	50 to 79	> 79
COc1ccc(CN2CCc3n[nH]c4nc(NCCc5ccc(F)cc5)nc2c34)cc1 [Compound 109, N-[2-(4-fluorophenyl)ethyl]-6-(4-methoxybenzyl)-2,6,7,8-tetrahydro-1,2,3,5,6-pentaazaacenaphthylen-4-amine]	50 to 79	50 to 79	< 50	50 to 79	< 50	50 to 79
CSc1nc2c3c(nn(Cc4ccccc4)c3n1)CCN2Cc1ccccc1 [Compound 133, 2,6-dibenzyl-4-(methylsulfanyl)-2,6,7,8-tetrahydro-1,2,3,5,6-pentaazaacenaphthylene]	> 79	> 79	> 79	> 79	> 79	> 79
c1ccc(N2CCc3n[nH]c4nc(NCCN5CCOCC5)nc2c34)cc1 [Compound 215, N-(2-morpholin-4-ylethyl)-6-phenyl-2,6,7,8-tetrahydro-1,2,3,5,6-pentaazaacenaphthylen-4-amine]	< 50	< 50	< 50	< 50	< 50	< 50
c1ccc(CN2CCc3n[nH]c4nc(N5CCc6ccccc6C5)nc2c34)cc1 [Compound 19, 6-benzyl-4-(3,4-dihydroisoquinolin-2(1H)-yl)-2,6,7,8-tetrahydro-1,2,3,5,6-pentaazaacenaphthylene]	< 50	< 50	50 to 79	< 50	50 to 79	< 50
COc1ccc(CCNc2nc3c4c(n[nH]c4n2)CCN3Cc2ccccc2)cc1 [Compound 32, 6-benzyl-N-[2-(4-methoxyphenyl)ethyl]-2,6,7,8-tetrahydro-1,2,3,5,6-pentaazaacenaphthylen-4-amine]	> 79	> 79	> 79	> 79	> 79	> 79
c1ccc(CN2CCc3n[nH]c4nc(NCC5CCCCC5)nc2c34)cc1 [Compound 55, 6-benzyl-N-(cyclohexylmethyl)-2,6,7,8-tetrahydro-1,2,3,5,6-pentaazaacenaphthylen-4-amine]	> 79	> 79	> 79	50 to 79	< 50	< 50
N#Cc1cccnc1N1CCN(c2nc3c4c(n[nH]c4n2)CCN3Cc2ccccc2)CC1 [Compound 8, 2-[4-(6-benzyl-2,6,7,8-tetrahydro-1,2,3,5,6-pentaazaacenaphthylen-4-yl)piperazin-1-yl]nicotinonitrile]	< 50	< 50	< 50	< 50	< 50	< 50
